Measurements taken from ChEMBL document CHEMBL1201862, “PubChem BioAssay data set” (2004).
Activity calls are given as the source filed them.

Columns and labels:
[1] = molecular target: T1, Rac GTPase-activating protein 1 (Homo sapiens, UniProt Q9H0H5); assay: blockers of MgcRacGAP-driven Rac1 GTP hydrolysis – biochemical, ADP Hunter fluorescence, primary and confirmatory, confirmation (AID 624330); format: functional
T1 sequence (Q9H0H5 whole entry): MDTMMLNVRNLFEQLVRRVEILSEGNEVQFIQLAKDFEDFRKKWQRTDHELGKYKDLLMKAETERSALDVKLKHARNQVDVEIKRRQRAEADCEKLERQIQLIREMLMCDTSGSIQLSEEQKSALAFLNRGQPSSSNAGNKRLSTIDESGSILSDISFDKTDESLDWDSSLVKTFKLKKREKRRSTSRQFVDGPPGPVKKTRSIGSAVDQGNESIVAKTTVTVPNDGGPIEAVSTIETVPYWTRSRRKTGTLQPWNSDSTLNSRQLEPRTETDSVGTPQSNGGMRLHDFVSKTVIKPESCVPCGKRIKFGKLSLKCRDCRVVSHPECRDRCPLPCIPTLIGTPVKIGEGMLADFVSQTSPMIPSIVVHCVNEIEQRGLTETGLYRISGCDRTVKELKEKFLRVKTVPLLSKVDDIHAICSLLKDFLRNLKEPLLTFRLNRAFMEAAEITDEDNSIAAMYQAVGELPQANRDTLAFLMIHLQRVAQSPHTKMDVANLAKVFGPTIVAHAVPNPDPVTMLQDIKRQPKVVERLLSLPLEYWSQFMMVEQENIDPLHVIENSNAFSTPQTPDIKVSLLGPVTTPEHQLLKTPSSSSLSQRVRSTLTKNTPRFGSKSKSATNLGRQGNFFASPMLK

[2] = molecular target: Cytochrome P450 2C19 (Homo sapiens, UniProt P33261); assay: Cytochrome panel assay with activity outcomes. Panel member name: p450-cyp2c19 Compounds with AC50 equal or less than 10 uM are considered active; format: functional
Sequence of Cytochrome P450 2C19 (P33261 whole entry): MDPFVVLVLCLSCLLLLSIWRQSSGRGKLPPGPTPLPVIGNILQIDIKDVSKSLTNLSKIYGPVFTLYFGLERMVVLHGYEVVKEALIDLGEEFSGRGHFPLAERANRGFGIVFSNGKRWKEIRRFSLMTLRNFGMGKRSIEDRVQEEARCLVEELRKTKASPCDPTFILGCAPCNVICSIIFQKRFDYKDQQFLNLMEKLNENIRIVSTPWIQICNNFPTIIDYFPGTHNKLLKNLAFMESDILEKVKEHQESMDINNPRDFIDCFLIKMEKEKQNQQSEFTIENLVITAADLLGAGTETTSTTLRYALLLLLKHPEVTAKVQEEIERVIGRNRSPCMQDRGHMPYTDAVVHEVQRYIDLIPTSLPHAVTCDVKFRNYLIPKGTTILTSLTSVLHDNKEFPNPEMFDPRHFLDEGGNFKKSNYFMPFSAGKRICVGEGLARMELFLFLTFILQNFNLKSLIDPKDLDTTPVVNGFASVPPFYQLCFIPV

[3] = molecular target: T2, Cytochrome P450 1A2 (Homo sapiens, UniProt P05177);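 also: PubChem cytochrome P450 panel assay, CYP1A2 panel member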
T2 sequence (P05177 whole entry): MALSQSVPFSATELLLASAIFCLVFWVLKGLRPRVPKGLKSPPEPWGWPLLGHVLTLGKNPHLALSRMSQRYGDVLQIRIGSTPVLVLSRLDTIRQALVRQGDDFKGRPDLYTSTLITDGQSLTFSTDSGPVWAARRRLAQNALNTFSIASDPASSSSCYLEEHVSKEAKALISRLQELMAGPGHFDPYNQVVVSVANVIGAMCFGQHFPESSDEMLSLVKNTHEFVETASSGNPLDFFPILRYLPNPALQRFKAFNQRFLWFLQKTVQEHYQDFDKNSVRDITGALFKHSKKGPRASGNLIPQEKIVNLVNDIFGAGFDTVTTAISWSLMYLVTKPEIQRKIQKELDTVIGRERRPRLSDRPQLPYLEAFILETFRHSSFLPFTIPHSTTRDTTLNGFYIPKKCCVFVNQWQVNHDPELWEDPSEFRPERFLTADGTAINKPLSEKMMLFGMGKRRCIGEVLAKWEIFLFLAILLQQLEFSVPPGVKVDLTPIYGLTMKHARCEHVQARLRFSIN

[4] = molecular target: Cytochrome P450 3A4 (Homo sapiens, UniProt P08684);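 also: CYP3A4 tested as one member of a cytochrome P450 panel screen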
Sequence of Cytochrome P450 3A4 (P08684 whole entry): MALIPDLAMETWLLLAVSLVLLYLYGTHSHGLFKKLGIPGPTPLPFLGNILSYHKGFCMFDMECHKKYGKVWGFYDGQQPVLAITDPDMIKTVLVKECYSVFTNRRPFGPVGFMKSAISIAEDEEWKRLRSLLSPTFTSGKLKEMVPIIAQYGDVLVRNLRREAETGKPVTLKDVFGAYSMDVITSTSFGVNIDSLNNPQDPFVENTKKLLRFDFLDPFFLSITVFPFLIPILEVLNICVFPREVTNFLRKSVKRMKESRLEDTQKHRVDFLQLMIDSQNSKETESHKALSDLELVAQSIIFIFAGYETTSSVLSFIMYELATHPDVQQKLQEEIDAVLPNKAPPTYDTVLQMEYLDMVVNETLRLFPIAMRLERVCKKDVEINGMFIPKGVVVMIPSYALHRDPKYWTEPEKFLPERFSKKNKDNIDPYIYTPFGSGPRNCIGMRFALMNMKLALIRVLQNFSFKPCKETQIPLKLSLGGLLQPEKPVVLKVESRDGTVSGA

[5] = molecular target: Cytochrome P450 2C9 (Homo sapiens, UniProt P11712)
Sequence of Cytochrome P450 2C9 (P11712 whole entry): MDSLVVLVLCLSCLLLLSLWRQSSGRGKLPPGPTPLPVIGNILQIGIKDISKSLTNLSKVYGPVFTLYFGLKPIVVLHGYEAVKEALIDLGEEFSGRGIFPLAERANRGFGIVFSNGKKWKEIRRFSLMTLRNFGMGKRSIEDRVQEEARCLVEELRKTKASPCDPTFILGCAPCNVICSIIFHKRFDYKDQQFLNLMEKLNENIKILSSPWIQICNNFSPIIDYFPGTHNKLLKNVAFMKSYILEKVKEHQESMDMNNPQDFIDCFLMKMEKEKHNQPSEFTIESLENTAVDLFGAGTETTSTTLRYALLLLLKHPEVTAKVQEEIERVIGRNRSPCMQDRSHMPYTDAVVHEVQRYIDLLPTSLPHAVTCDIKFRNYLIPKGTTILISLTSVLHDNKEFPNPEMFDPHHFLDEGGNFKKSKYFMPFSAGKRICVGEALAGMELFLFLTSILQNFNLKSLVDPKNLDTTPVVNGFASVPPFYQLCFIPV

[6] = luciferase reporter signal suppression in cells – H4 neuroglioma cells, luminescence, dose response (AID 1990); format: functional, cell-based
[7] = Luminescence Cell-Based Dose Response HTS to Identify Inhibitors of 5'UTR Stem-Loop Driven Prion Protein mRNA Translation in H4 Neuroglioblastoma Cells. [Related pubchem assays: 1827 (Project Summary), 1813 (Primary HTS)]; format: functional
[8] = alpha-synuclein stem-loop luciferase translation blockers – H4 neuroglioma cells, luminescence, confirmation (AID 1988); format: functional, cell-based
[9] = molecular target: Cytochrome P450 2D6 (Homo sapiens, UniProt P10635);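 also: CYP2D6 member of a cytochrome P450 panel assay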
Sequence of Cytochrome P450 2D6 (P10635 whole entry): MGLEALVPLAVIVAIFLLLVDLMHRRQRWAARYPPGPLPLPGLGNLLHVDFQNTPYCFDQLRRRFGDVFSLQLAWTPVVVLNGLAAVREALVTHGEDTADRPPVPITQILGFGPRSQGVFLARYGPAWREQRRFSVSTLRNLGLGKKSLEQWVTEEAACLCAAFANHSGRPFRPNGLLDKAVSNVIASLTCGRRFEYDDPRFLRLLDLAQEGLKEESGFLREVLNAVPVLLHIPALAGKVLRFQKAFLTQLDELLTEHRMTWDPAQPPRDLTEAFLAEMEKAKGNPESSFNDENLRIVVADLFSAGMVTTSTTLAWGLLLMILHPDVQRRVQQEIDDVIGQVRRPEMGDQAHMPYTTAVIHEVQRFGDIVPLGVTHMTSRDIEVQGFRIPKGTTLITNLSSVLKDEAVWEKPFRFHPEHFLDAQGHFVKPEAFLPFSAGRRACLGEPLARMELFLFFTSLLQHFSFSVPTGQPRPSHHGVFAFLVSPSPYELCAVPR

Compound: Cc1ccccc1CN1CCN(C(=O)c2cccc3ccccc23)CC1
- IC50 [1]: 215 µM (active)

Compound: CC1CCN(c2ccc(NC(=S)NC(=O)c3ccco3)cc2)CC1
- AC50 ([2]; read-out: AC50): 3.98 µM (inconclusive)
- AC50 [3]: 28.2 µM (inconclusive)
- AC50 [4]: 17.8 µM (inconclusive)
- AC50 [5]: 1.41 µM (inconclusive)

Compound: Cc1cc(=O)oc(C)c1C(=O)Nc1ccc(Cl)cn1
- AC50 ([2]; read-out: AC50): 2.24 µM (inconclusive)
- AC50 [5]: 20 µM (inconclusive)

Compound: COc1ccccc1CN1CCCC2(CCN(C(C)=O)CC2)C1
- AC50 [3]: 25.1 µM (inconclusive)

Compound: O=[N+]([O-])c1cc([N+](=O)[O-])c(Oc2cccc(Cl)c2Cl)cc1NN1CCCCC1
- EC50 [6]: 11.8 µM (active)
- EC50 [7]: > 120 µM (not active)
- EC50 [8]: 58.3 µM (active)

Compound: CCCC(=O)Nc1nnc(Cc2ccccc2)s1
- AC50 [4]: 15.8 µM (inconclusive)
- AC50 [5]: 10 µM (inconclusive)

Compound: COc1cc(/C=C/C(=O)OCC(=O)N2CCN(C(=O)c3ccco3)CC2)ccc1O
- IC50 [1]: 44.8 µM (active)

Compound: O=C(Nc1ccccc1)N1CCCC2(CCN(C(=O)c3cc(C(F)(F)F)cc(C(F)(F)F)c3)CC2)C1
- AC50 [3]: 31.6 µM (inconclusive)

Compound: COC(=O)/C=C/c1ccccc1S(=O)(=O)N(Cc1ccccc1)Cc1ccco1
- EC50 [6]: 8.38 µM (inconclusive)
- EC50 [7]: 9.84 µM (active)
- EC50 [8]: 5.96 µM (active)

Compound: O=c1c2ccc([N+](=O)[O-])c3cccc(c32)c2nc3ccccc3n12
- EC50 [6]: < 0.1 µM (active)
- EC50 [7]: < 0.1 µM (active)
- EC50 [8]: < 0.1 µM (active)

Compound: Cc1nnc(-c2cccc(Br)c2)c2cn(-c3ccccc3Cl)nc12
- AC50 [9]: 28.2 µM (inconclusive)
- AC50 [4]: 39.8 µM (inconclusive)

Compound: CSc1nc(NCc2ccco2)c2sc3nc(C(C)C)c4c(c3c2n1)CC(C)(C)OC4
- EC50 [6]: 27.5 µM (active)
- EC50 [7]: > 120 µM (not active)
- EC50 [8]: > 120 µM (not active)

Compound: Cc1cnn(-c2ccc3nnc(-c4ccc(Cl)cc4)n3n2)c1
- AC50 ([2]; read-out: AC50): 1.41 µM (inconclusive)
- AC50 [4]: 1.12 µM (inconclusive)
- AC50 [5]: 6.31 µM (inconclusive)

Compound: O=C(c1cccc(F)c1)N1CCC2(CCN(Cc3ccncc3)CC2)CC1
- AC50 ([2]; read-out: AC50): 25.1 µM (inconclusive)
- AC50 [9]: 12.6 µM (inconclusive)
- AC50 [3]: 12.6 µM (inconclusive)
- AC50 [4]: 15.8 µM (inconclusive)

Compound: CN(C)c1ncc2nc(-c3ccccc3)c(=O)n(-c3ccccc3)c2n1
- AC50 [3]: 0.398 µM (inconclusive)

Compound: O=C(O)c1ccc(Oc2nc3ccccc3s2)cc1
- AC50 [3]: 3.16 µM (inconclusive)

Compound: CN(C)S(=O)(=O)c1ccc(Nc2ccc(O)c3c2C(=O)c2c([N+](=O)[O-])ccc(O)c2C3=O)cc1
- AC50 [9]: 0.794 µM (inconclusive)
- AC50 [4]: 3.98 µM (inconclusive)
- AC50 [5]: 3.16 µM (inconclusive)

Compound: CCCCNC(=O)CN1C(=O)NC2(CCCc3ccccc32)C1=O (stereo not drawn)
- AC50 ([2]; read-out: AC50): 31.6 µM (inconclusive)
- AC50 [3]: 25.1 µM (inconclusive)

Compound: Cc1ccc(C(=O)NC(=S)Nc2ccc(S(=O)(=O)N3CCN(C)CC3)cc2)cc1
- AC50 [3]: 12.6 µM (inconclusive)
- AC50 [4]: 0.891 µM (inconclusive)

Compound: O=c1c(-c2ccccc2)c(O)c2cccc3c2n1CCC3
- AC50 [3]: 11.2 µM (inconclusive)

Compound: COC(=O)c1nn(C23CC4CC(CC(C4)C2)C3)c2c1C(=O)N(c1ccc(F)cc1)C2=O
- AC50 ([2]; read-out: AC50): 39.8 µM (inconclusive)
- AC50 [5]: 12.6 µM (inconclusive)

Compound: O=C(NCc1ccc(F)cc1)C(c1ccncc1)N(C(=O)c1csnn1)C1CC1 (stereo not drawn)
- AC50 [9]: 11.2 µM (inconclusive)
- AC50 [5]: 8.91 µM (inconclusive)

Compound: COc1ccc(-c2c[nH]nc2-c2ccc(O)cc2O)cc1OC
- IC50 [1]: 60.2 µM (active)

Compound: Oc1ccc(/N=C(\S)Nc2ccc(O)cc2)cc1
- IC50 [1]: 41.7 µM (active)

Compound: COCC(=O)N1CCC2(CCCN(C(=O)Nc3ccc(OC)cc3)C2)CC1
- AC50 [2]: inconclusive
- AC50 [4]: 39.8 µM (inconclusive)

Compound: Cn1c(=O)c2c(-c3cccc(F)c3)c3c(nc2n(C)c1=O)-c1ccccc1C3O (stereo not drawn)
- AC50 [9]: 79.4 µM (inconclusive)
- AC50 [4]: 22.4 µM (inconclusive)
- AC50 [5]: 2.82 µM (inconclusive)

Compound: O=C(Nc1ccc(Oc2ncnc3cc(Cl)ccc23)nc1)c1cccs1
- EC50 [6]: > 120 µM (not active)
- EC50 [7]: > 120 µM (not active)
- EC50 [8]: > 120 µM (not active)

Compound: CC1=CC2=NC(=O)CC(C)(C(=O)N(CC(=O)NC(C)(C)C)Cc3cccs3)N2C=C1 (stereo not drawn)
- AC50 [5]: 25.1 µM (inconclusive)

Compound: COCCn1c(=O)cnc2cnc(Oc3ccccc3)nc21
- AC50 [4]: 25.1 µM (inconclusive)

Compound: CC(=O)Nc1ccc2c(c1)/C(=C/c1ccc([N+](C)(C)C)cc1)c1ccccc1-2
- AC50 [3]: 1.58 µM (inconclusive)
- AC50 [5]: 3.16 µM (inconclusive)

Compound: O=C(Nc1ccc(-n2nncc2-c2ccco2)cc1)c1ccc(F)cc1
- AC50 [5]: 11.2 µM (inconclusive)

Compound: Cc1c(N2C(=O)CS/C2=N\N=C\c2ccc(Cl)cc2)c(=O)n(-c2ccccc2)n1C
- AC50 ([2]; read-out: AC50): 39.8 µM (inconclusive)
- AC50 [4]: 28.2 µM (inconclusive)
- AC50 [5]: 31.6 µM (inconclusive)

Compound: CC(=O)[C@H](C(=N)C#N)C(=O)Nc1ccccc1
- AC50 [2]: inconclusive
- AC50 [3]: 6.31 µM (inconclusive)

Compound: O=c1c(-c2cccs2)nc2cnc(N3CCOCC3)nc2n1Cc1cccs1
- AC50 [3]: 15.8 µM (inconclusive)
- AC50 [4]: 10 µM (inconclusive)

Compound: COC(=O)C1=C(C)NC(C)=C(C(=O)OC(C)C)C1c1cccc2nonc12 (stereo not drawn) [ISRADIPINE]
- AC50 [3]: 31.6 µM (inconclusive)

Compound: Cc1cnc(CNc2ncncc2-c2ccccc2C(F)(F)F)cn1
- AC50 ([2]; read-out: AC50): 39.8 µM (inconclusive)
- AC50 [4]: 0.2 µM (inconclusive)

Compound: COc1ccc2cc3cc(C(=O)NCc4ccccn4)oc3nc2c1
- AC50 [9]: 39.8 µM (inconclusive)
- AC50 [4]: 39.8 µM (inconclusive)

Compound: C=C(CC1([C@@H](NP(=O)(c2ccccc2)c2ccccc2)[C@H]2C[C@@H]2CCCC)CC1)c1cccc(OC)c1
- AC50 ([2]; read-out: AC50): 15.8 µM (inconclusive)
- AC50 [9]: 39.8 µM (inconclusive)
- AC50 [3]: 12.6 µM (inconclusive)
- AC50 [5]: 39.8 µM (inconclusive)

Compound: N#CC(C#N)=NNc1ccc2cn[nH]c2c1
- AC50 ([2]; read-out: AC50): 3.16 µM (inconclusive)
- AC50 [4]: 1.58 µM (inconclusive)

Compound: Cc1cccc(NC(S)=NNC(=O)CCn2cc(C)cn2)c1
- AC50 [2]: inconclusive
- AC50 [3]: 25.1 µM (inconclusive)

Compound: Cc1cc(SC(C)C(=O)NCC(=O)Nc2ccc(F)c(F)c2F)nc2ccccc12 (stereo not drawn)
- EC50 [6]: > 120 µM (not active)
- EC50 [7]: 92 µM (active)
- EC50 [8]: 18 µM (active)

Compound: COc1ccc(C)cc1NC(=O)CN1CCN(S(=O)(=O)c2ccc(F)cc2)CC1
- AC50 [3]: 0.0398 µM (inconclusive)

Compound: COCCNC(=S)Nc1cc(OC)c(OC)cc1C#N
- IC50 [1]: 204 µM (active)

Compound: COCCNC(=O)[C@H](C)[C@@H]1C[C@@]1(C)[C@@H](NC(=O)OCc1ccccc1)c1ccccc1
- AC50 [5]: 31.6 µM (inconclusive)

Compound: CCCC1S/C(=N/N=C/c2ccc(OC)cc2)N(Cc2ccc(OC)cc2)C1=O (stereo not drawn)
- AC50 [4]: 1 µM (inconclusive)

Compound: COc1cc(-c2c(C#N)c(N)nc3c2CCCC3)cc(OC)c1OC
- EC50 [6]: 27.4 µM (active)
- EC50 [7]: 17.1 µM (active)
- EC50 [8]: 19.7 µM (active)

Compound: COc1ccc(O[C@H]2C=C[C@@H](c3ccccc3)O[C@@H]2CO/N=C(\C)CCN2CCCCc3nc(C)c(C)cc32)cc1
- AC50 [5]: 6.31 µM (inconclusive)

Compound: Cc1ccc(S(=O)(=O)c2cc(N3CCOCC3)nc(-c3ccccc3)n2)cc1
- AC50 [5]: 11.2 µM (inconclusive)

Compound: O=C1N[C@@]2(CN3CCC2CC3)C(=O)N1CN(Cc1ccccc1)c1ccccc1
- AC50 ([2]; read-out: AC50): 1.58 µM (inconclusive)
- AC50 [3]: 0.398 µM (inconclusive)

Compound: O=C(Nc1ccc(F)cc1Cl)c1ccc2c(=O)n3c(nc2c1)CCCCC3
- AC50 ([2]; read-out: AC50): 3.98 µM (inconclusive)
- AC50 [4]: 4.47 µM (inconclusive)
